The values below come from ChEMBL document CHEMBL1201862, “PubChem BioAssay data set” (2004).

Holding throughout (experiment): NCI-60 cell line screen, 48 h
The test system of assay [1] is Hs-578T.
Assay [2] has as its system HOP-92.
For assay [3], the system named is RPMI-8226.
Assay [4] concerns 786-0.
For assay [5], the system named is HL-60.
Assay [6] concerns SNB-75.
The test system of assay [7] is SK-OV-3.
Assay [8] has as its system A498.
Assay [9] concerns RXF 393.
In assay [10] the test system is T47D.
Assay [11] concerns OVCAR-3.
The test system of assay [12] is HCT-15.
Assay [13] deals with A549.
The test system of assay [14] is SK-MEL-5.
Assay [15] has as its system MDA-MB-435.
Assay [16] relates to SNB-19.
In assay [17] the test system is NCI-H226.
Assay [18] relates to SK-MEL-28.
For assay [19], the system named is LOX IMVI.
Assay [20] relates to K562.

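1) Cells in 96-well plates. 2) Compound, 48 h, 5 concentrations. 3) Linear interpolation between surrounding doses. 4) Unreached endpoint = highest concentration. GI50 is the concentration that inhibits growth by half.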 Calls of active or inactive are those of the source. No stated cut-off is given here; in the data, active = GI50 up to about 1.1 µM and inactive = higher.

Turning to `C=C(C)[C@H]1C[C@@H]2O[C@@](O)(/C(C)=C\C(=O)/C=C(/C)C[C@H]3OC(=O)[C@@]24O[C@H]34)[C@@H]1O`, the GI50 in [1], in [2], in [3], in assay [4], in [5] and in assay [6] was > 100 µM (inactive) in each case. The GI50 in [7] is > 100 µM (inactive); in assay [8] it was > 100 µM (inactive); in assay [9] it was 25.7 µM (inactive); in [10], > 100 µM (inactive); in [11] it was > 100 µM (inactive); in assay [12] it was more than 100 µM. For the same compound, the GI50 in assay [13], in [14], in assay [15], in assay [16], in assay [17] and in [18] was > 100 µM (inactive) each time. Moreover, the GI50 in [19] and in assay [20] was > 100 µM (inactive) in each case.

Consider `COc1ccc(Nc2n[nH]c(NS(=O)(=O)c3cc(C)c(Cl)cc3S)n2)cc1`, for which the GI50 in assay [1], in assay [2], in [3], in assay [4], in assay [5] and in assay [6] was > 100 µM (inactive) in each case. Besides, the GI50 in [7] was > 100 µM (inactive); in assay [8], > 100 µM (inactive); in assay [9], > 100 µM (inactive); in assay [10], > 100 µM (inactive); in assay [11] it was > 100 µM (inactive); in [12] it was more than 100 µM. Moreover, the GI50 in [13], in [14], in [15], in assay [16], in [17] and in [18] was > 100 µM (inactive) each time. For the same compound, the GI50 in assay [19] and in assay [20] was > 100 µM (inactive) each time.

Take `CN(CCNC(=O)c1c[nH]c2c1ccc1ccccc12)CCNC(=O)c1c[nH]c2c1ccc1ccccc12`: the GI50 in assay [1] is 2.94 µM (inactive); in [2], 1.75 µM (inactive); in assay [3], 3.15 µM (inactive); in [4], 1.82 µM (inactive); in [5], 1.95 µM (inactive); in assay [6] it was 1.52 µM (inactive). For the same compound, the GI50 is 4.23 µM (inactive) in [7]; 1.53 µM (inactive) in assay [8]; 1.14 µM (inactive) in [9]; 1.14 µM (inactive) in [10]; 4.29 µM (inactive) in assay [11]; 1.92 µM in assay [12]. Further, the GI50 is 2.2 µM (inactive) in [13]; 7.29 µM (inactive) in assay [14]; 1.84 µM (inactive) in [15]; 2.23 µM (inactive) in assay [16]; 18.1 µM (inactive) in [17]; 2 µM (inactive) in assay [18]. Moreover, the GI50 was 1.64 µM (inactive) in assay [19] and 2.18 µM (inactive) in assay [20].

Take `Cc1ccc2c(n1)C(=O)c1cc(C)c(C)cc1C2=O`: the GI50 is 44.2 µM (inactive) in assay [1]; 43.1 µM (inactive) in assay [2]; > 100 µM (inactive) in assay [3]; 62.1 µM (inactive) in [4]; 36 µM (inactive) in [5]; 27.5 µM (inactive) in [6]. The GI50 is > 100 µM (inactive) in [7]; > 100 µM (inactive) in [8]; 34 µM (inactive) in assay [9]; 49.5 µM (inactive) in assay [10]; 20.5 µM (inactive) in assay [11]; 75.9 µM in assay [12]. Moreover, the GI50 is 64.9 µM (inactive) in assay [13]; 12.4 µM (inactive) in [14]; 85.3 µM (inactive) in assay [15]; > 100 µM (inactive) in [16]; > 100 µM (inactive) in assay [17]; > 100 µM (inactive) in assay [18]. Further, the figures for the GI50 in [19] and in assay [20] were 68.4 µM (inactive) and 68.7 µM (inactive), respectively.

For `COc1cc2c3c(cc(Cl)nc3c1OC)C(O)(CC(=O)c1ccccc1)C(=O)N2` (stereo not given), the GI50 was 21.7 µM (inactive) in assay [1]; 1.94 µM (inactive) in assay [2]; 2.55 µM (inactive) in [3]; 8.93 µM (inactive) in assay [4]; 1.49 µM (inactive) in [5]; 14.8 µM (inactive) in [6]. Besides, the GI50 in [7] is 17.4 µM (inactive); in [8] it was 18.4 µM (inactive); in assay [9] it was 13.4 µM (inactive); in [10], 3.56 µM (inactive); in [11] it was 15.6 µM (inactive); in [12] it was 21.5 µM. In addition, the GI50 in [13] was 18 µM (inactive); in assay [14], 15.9 µM (inactive); in assay [15] it was 1.93 µM (inactive); in assay [16], 17.7 µM (inactive); in assay [17], 21.5 µM (inactive); in [18] it was 16 µM (inactive). Also, the GI50 was 7.01 µM (inactive) in [19] and 4.79 µM (inactive) in assay [20].

For the compound `C=CCc1cccc2cc(C(=O)NC3CCCCC3)c(=N)oc12`, the GI50 in assay [1] was 11.3 µM (inactive); in assay [2], 35 µM (inactive); in [3] it was 45.6 µM (inactive); in [4], 14.5 µM (inactive); in [5] it was 41 µM (inactive); in assay [6], 15.8 µM (inactive). Further, the GI50 in assay [7] is 24 µM (inactive); in assay [8] it was 16.7 µM (inactive); in [9] it was 31.4 µM (inactive); in assay [10] it was 11.4 µM (inactive); in assay [11], 14.1 µM (inactive); in assay [12], 14.1 µM. Also, the GI50 in assay [13] was 32.2 µM (inactive); in assay [14], 14 µM (inactive); in assay [15] it was 20.7 µM (inactive); in assay [16], 21.4 µM (inactive); in [17] it was 20.1 µM (inactive); in assay [18], 17.3 µM (inactive). For the same compound, the GI50 is 15.4 µM (inactive) in assay [19] and > 100 µM (inactive) in assay [20].

For the compound `Nc1ccc(C2SCC(=O)N2NS(=O)(=O)c2cccc(C(=O)O)c2)cc1` (stereo not given), the GI50 in assay [1] was > 100 µM (inactive); in [2], > 100 µM (inactive); in assay [3], 10.4 µM (inactive); in assay [4], > 100 µM (inactive); in assay [5], > 100 µM (inactive); in [6], > 100 µM (inactive). Moreover, the GI50 in [7] is > 100 µM (inactive); in [8], > 100 µM (inactive); in assay [9], > 100 µM (inactive); in assay [10], 58.3 µM (inactive); in assay [11] it was > 100 µM (inactive); in [12], more than 100 µM. The GI50 in [13], in assay [14], in assay [15], in [16], in [17] and in assay [18] was > 100 µM (inactive) each time. Further, the GI50 in assay [19] and in assay [20] was > 100 µM (inactive) each time.

In the case of `C=C(C)[C@@H]1CCC2=C(CC[C@]3(C)[C@@H]([C@@H](CCC=C(C)C)C(=O)O)[C@H](O)C[C@@]23C)[C@@]1(C)CCC(=O)O` [PORICOIC ACID G], the GI50 was > 100 µM (inactive) in assay [1]; 32.1 µM (inactive) in assay [2]; 88.7 µM (inactive) in assay [3]; 85.9 µM (inactive) in [4]; 0.0393 µM (active) in assay [5]; 60.5 µM (inactive) in [6]. The GI50 in assay [7] was > 100 µM (inactive); in assay [8] it was > 100 µM (inactive); in assay [9], 41.4 µM (inactive); in assay [10] it was > 100 µM (inactive); in assay [11], > 100 µM (inactive); in [12], 38.6 µM. Also, the GI50 was 42.1 µM (inactive) in assay [13]; 92.7 µM (inactive) in assay [14]; > 100 µM (inactive) in [15]; 46 µM (inactive) in assay [16]; 57.3 µM (inactive) in assay [17]; 66.8 µM (inactive) in [18]. In addition, the GI50 was 61.2 µM (inactive) in assay [19] and 53.2 µM (inactive) in [20].

As to `CCCC(=O)OC[n+]1cccc(-c2c(COC(=O)NC(C)C)c(COC(=O)NC(C)C)c3n2CCC3)c1`, the GI50 in assay [1] is > 100 µM (inactive); in [2], 32.4 µM (inactive); in assay [3], 32.3 µM (inactive); in [4] it was 37.5 µM (inactive); in assay [5], 15.7 µM (inactive); in [6], 71.3 µM (inactive). Besides, the GI50 in assay [7] was > 100 µM (inactive); in assay [8], 28.5 µM (inactive); in [9], 23.1 µM (inactive); in assay [10], > 91.8 µM (inactive); in assay [11], > 77.8 µM (inactive); in assay [12], more than 93.3 µM. In addition, the GI50 in [13] was 89.5 µM (inactive); in [14] it was 69.7 µM (inactive); in [15], 98.2 µM (inactive); in assay [16], > 100 µM (inactive); in [17], > 91 µM (inactive); in assay [18], > 100 µM (inactive). In addition, the GI50 is 35.2 µM (inactive) in assay [19] and 50.8 µM (inactive) in [20].

As to `CCSC1=N/C(=C\c2ccco2)C(NN)=N1`, the GI50 in assay [1], in assay [2], in assay [3], in assay [4], in assay [5] and in assay [6] was > 50 µM (inactive) throughout. The GI50 in [7] is > 50 µM (inactive); in assay [8], > 50 µM (inactive); in assay [9], > 50 µM (inactive); in [10], > 50 µM (inactive); in assay [11] it was > 50 µM (inactive); in assay [12] it was more than 50 µM. The GI50 in assay [13], in [14], in assay [15], in [16], in assay [17] and in [18] was > 50 µM (inactive) in each case. Further, the GI50 in [19] and in assay [20] was > 50 µM (inactive) in each case.
